{"source": "patent US20060210485A1", "about": "“Pharmaceutical formulations” (priority 2003, published 2006)", "origin": "cited, not measured here", "conditions": "solid tablets with a lactose excipient; adducts postulated via the Maillard reaction", "note": "Structures can show the parent of a compound that is named as a salt.", "data": [{"smiles": "CNCCC(Oc1ccc(C(F)(F)F)cc1)c1ccccc1", "note": "(stereo not shown) [fluoxetine hydrochloride]", "values": [{"measurement": "chemical stability in presence of lactose", "value": "undergoes degradation"}]}]}
